Reference: PMC6017257, “Towards a Novel Class of Multitarget-Directed Ligands: Dual P2X7–NMDA Receptor Antagonists” (Molecules : A Journal of Synthetic Chemistry and Natural …, 2018)
Like-named read-outs stand apart in the source and are kept apart here.

What was measured:
human P2X7 receptor = target: T1, human P2X7 receptor (Homo sapiens, UniProt Q99572); experiment: BzATP-induced ethidium bromide uptake (dye uptake) in hP2X7-expressing HEK293 cells; assay type: cell-based; settings: for IC50: ethidium bromide accumulation stimulated by BzATP 6 µM, hP2X7-expressing HEK293 cells, from concentration-response curves; for inhibition at 1 µM / inhibition at 10 µM: P2X7, relative to maximum ethidium bromide uptake stimulated by BzATP 6 µM; for inhibition at 1 µM: at 1 μM (right value); for inhibition at 10 µM: at 10 µM (left value)
T1 construct: expressed in transfected cells; host or cells: HEK293
T1 sequence (Q99572 1-595): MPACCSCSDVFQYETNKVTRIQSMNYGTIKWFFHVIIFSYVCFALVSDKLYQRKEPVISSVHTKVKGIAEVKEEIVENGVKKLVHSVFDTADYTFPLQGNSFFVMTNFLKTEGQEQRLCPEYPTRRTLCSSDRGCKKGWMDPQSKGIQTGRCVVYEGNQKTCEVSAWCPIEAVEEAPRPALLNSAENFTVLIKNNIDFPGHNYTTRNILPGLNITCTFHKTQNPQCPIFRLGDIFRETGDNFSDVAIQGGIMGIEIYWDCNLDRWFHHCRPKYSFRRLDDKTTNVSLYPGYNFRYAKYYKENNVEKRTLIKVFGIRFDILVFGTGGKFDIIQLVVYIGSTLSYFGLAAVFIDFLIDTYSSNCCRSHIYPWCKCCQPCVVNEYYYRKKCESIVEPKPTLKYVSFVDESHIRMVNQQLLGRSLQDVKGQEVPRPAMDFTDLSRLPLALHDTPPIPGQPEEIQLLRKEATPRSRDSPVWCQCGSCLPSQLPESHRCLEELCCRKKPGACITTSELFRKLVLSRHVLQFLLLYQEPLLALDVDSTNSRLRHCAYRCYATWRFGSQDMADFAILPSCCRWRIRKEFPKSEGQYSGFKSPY
Protocol: All new compounds were evaluated for their antagonistic effects on 2’(3’)-O-(4-benzoylbenzoyl)-ATP (BzATP)-induced ethidium bromide uptake in human embryonic kidney 293 (HEK 293) cells, stably expressing the human P2X7 receptor, using P2X7 receptor antagonist AZD9056—AstraZeneca’s clinical drug candidate [46]—as a positive control. […] However, taking into account that we wanted to design a compound endowed with low micromolar inhibitory potencies against both the P2X7 and NMDA receptors, compound 9g suited our purpose.
HEK293 cells stably expressing the P2X7 receptor were maintained in Dulbecco's modified Eagle's medium (DMEM) supplemented with 10% fetal bovine serum (FBS), 2 mM L-glutamine, and antibiotics (50 U/mL penicillin and […] streptomycin) in a humidified 5% CO2 atmosphere at 37 °C. We used Lipofectamine as a transfection reagent with a pcDNA3.1 vector-based plasmid harbouring hP2X7R (Invitrogen, Waltham, MA, USA). After diluting to 2.5 × 10^6 cells/mL, a buffer composed of 10 mM HEPES, 5 mM N-methyl-D-glutamine, 5.6 mM KCl, 10 mM D-glucose, and 0.5 mM CaCl2 (pH 7.4), supplemented with either 280 mM sucrose or 140 mM NaCl and an 80 μL aliquot, was added to each well of 96-well culture plates. The test compounds and 2(3’)-O-(4-benzoylbenzoyl)-ATP (BzATP) were then added, and the cells were incubated for 2 h in a humidified 5% CO2 atmosphere at 37 °C. After incubation, a Bio-Tek FL600 fluorescence plate reader (Winooski, VT, USA) was used to measure the […] at an excitation wavelength of 530 nm and an emission wavelength of 590 nm. The inhibition (percent) of ethidium ion uptake was expressed as a relative value of the maximum accumulation when stimulated with BzATP only. To calculate IC50 values, we calculated a series of dose–response data using nonlinear regression analysis (i.e., percentage accumulation of ethidium bromide vs compound concentration). The concentration of ethidium bromide was 0.1 mM.

hP2X7 [1] = test system: hP2X7; parameters: method as in PMID 18438986; settings: read-out: P2X7R antagonist activity IC50; cited from earlier work
NMDA receptors = experiment: Inhibition of NMDA-evoked increase in intracellular calcium in rat cultured cerebellar granule neurons; assay type: cell-based; settings: for % inhibition: relative to maximum intracellular calcium stimulated by 100 µM NMDA with 10 µM glycine
Protocol: Additionally, to evaluate whether the synthesized compounds were able to antagonize the NMDA receptors, we measured their effects on the increase in intracellular calcium evoked by NMDA (100 μM, in the presence of 10 μM of glycine) on rat-cultured cerebellar granule neurons.
The functional assay of antagonist activity at the NMDA receptors was performed using primary cultures of rat cerebellar granule neurons that were prepared according to established protocols. Cells were grown on 10 mm poly-L-lysine coated glass cover slips, and used for the experiments after 6–9 days in vitro. Cells were loaded with 6 µM Fura-2 AM (ThermoFisher Scientific-Molecular Probes) for 30 min. Afterwards, the coverslip was mounted on a quartz cuvette containing a Locke-Hepes buffer using a special holder. Measurements were performed using a PerkinElmer LS-55 fluorescence spectrometer (Waltham, MA, USA) equipped with a fast-filter accessory, under mild agitation and at 37 °C. Analysis of each sample was recorded in real time for 1600 s. After stimulation with NMDA (100 µM, in the presence of 10 µM glycine), increasing cumulative concentrations of the compound to be tested were added. The percentages of inhibition at every tested concentration were analyzed using a non-linear regression curve fitting analysis by using the software GraphPad Prism 5.0 (GraphPad Software Inc., La Jolla, CA, USA).
Table S1. NMDA antagonist activity in rat cerebellar granule cells. […]
aPercentage inhibition values at 100 µM (left) and 300 μM (right) were expressed as percentages, relative to maximum intracellular calcium concentration stimulated by 100 µM NMDA in the presence of 10 µM of glycine. All experiments were repeated at least three times. bIC50 value was obtained from concentration response curves.

hP2X7 [2] = test system: hP2X7; parameters: method as in PMID 22400713; settings: read-out: P2X7R antagonist IC50; cited from earlier work
NMDAR = settings: cited from earlier work

Row | melting point [°C] | inhibition at 1 µM (human P2X7 receptor) [%] | inhibition at 10 µM (human P2X7 receptor) [%] | Compound | % inhibition (NMDA receptors; at 100 µM (left value)) [%] | % inhibition (NMDA receptors; at 300 μM (right value)) [%] | also measured
1 | 213 to 216 | 37 | 48 | NC12CC3CC(C1)CC(C(=O)NNc1ccccc1C(F)(F)F)(C3)C2 [Compound 9a, 3-Amino-N'-[2-(trifluoromethyl)phenyl]adamantane-1-carbohydrazide] | 5 | 14 | –
2 | 153 to 156 | 16 | 23 | NC12CC3CC(C1)CC(C(=O)NNc1c(Cl)cccc1Cl)(C3)C2 [Compound 9b, 3-Amino-N'-(2,6-dichlorophenyl)adamantane-1-carbohydrazide] | 17 | 38 | –
3 | 215 to 219 | 17 | 42 | NC12CC3CC(C1)CC(C(=O)NNc1cccc(Cl)c1Cl)(C3)C2 [Compound 9c, 3-Amino-N'-(2,3-dichlorophenyl)adamantane-1-carbohydrazide] | 23 | 30 | –
4 | 185 to 186 | 21 | 24 | NC12CC3CC(C1)CC(C(=O)NNc1ccc(C(F)(F)F)cc1Cl)(C3)C2 [Compound 9d, 3-Amino-N'-[2-chloro-4-(trifluoromethyl)phenyl]adamantane-1-carbohydrazide] | 20 | – | –
5 | 191 to 192 | 27 | 53 | NC12CC3CC(C1)CC(C(=O)NNc1c(Cl)cncc1Cl)(C3)C2 [Compound 9e, 3-Amino-N'-(3,5-dichloropyridin-4-yl)adamantane-1-carbohydrazide] | 6 | 16 | –
6 | 200 to 202 | 17 | 15 | NC12CC3CC(C1)CC(C(=O)NNc1cccc(Cl)c1F)(C3)C2 [Compound 9f, 3-Amino-N'-(3-chloro-2-fluorophenyl)adamantane-1-carbohydrazide] | 11 | 18 | –
7 | 220 to 222 | – | – | NC12CC3CC(C1)CC(C(=O)NNc1ccccc1Cl)(C3)C2 [Compound 9g, 3-Amino-N'-(2-chlorophenyl)adamantane-1-carbohydrazide] | – | – | IC50 (human P2X7 receptor): 6 ± 0.6 µM; IC50 (NMDA receptors; NMDA 100 μM with 10 μM glycine, rat cerebellar granule neurons, read-out: IC50 (NMDA receptor)): 468 ± 23 µM; NMDA receptor inhibition (in words) (NMDA receptors; rat cerebellar granule neurons): some activity as an NMDA receptor antagonist
8 | 300 to 302 | – | – | CC12CC3(C)CC(N)(C1)CC(C(=O)NNc1c(Cl)cncc1Cl)(C2)C3 [Compound 15a, 3-Amino-N'-(3,5-dichloropyridin-4-yl)-5,7-dimethyladamantane-1-carbohydrazide] | 20 | 31 | IC50 (human P2X7 receptor): 9.9 ± 0.7 µM; NMDA receptor inhibition (in words) (NMDA receptors; rat cerebellar granule neurons): unable to significantly inhibit the NMDA receptor even at millimolar concentrations
9 | 280 to 282 | – | – | CC12CC3(C)CC(N)(C1)CC(C(=O)NNc1ccccc1Cl)(C2)C3 [Compound 15b, 3-Amino-N'-(2-chlorophenyl)-5,7-dimethyladamantane-1-carbohydrazide] | 7 | 8 | IC50 (human P2X7 receptor): 16.1 ± 1.6 µM; NMDA receptor inhibition (in words) (NMDA receptors; rat cerebellar granule neurons): unable to significantly inhibit the NMDA receptor even at millimolar concentrations

The next lines start with the molecule.

Row | Compound | melting point [°C] | inhibition at 1 µM (human P2X7 receptor) [%] | inhibition at 10 µM (human P2X7 receptor) [%] | % inhibition (NMDA receptors; at 100 µM (left value)) [%] | % inhibition (NMDA receptors; at 300 μM (right value)) [%] | also measured
10 | O=C(NCC12CC3CC(CC(C3)C1)C2)c1cc(CCCNCCCO)ccc1Cl [AZD9056, reference compound] | – | – | – | – | – | IC50 (human P2X7 receptor): 0.0041 ± 0.0007 µM
11 | O=C(NNc1ccccc1Cl)C12CC3CC(CC(C3)C1)C2 [Compound 1a] | – | – | – | – | – | IC50 (hP2X7 [1]): 0.0116 ± 0.002 µM
12 | O=C(NNc1ccccc1Cl)C12CC3CC(CC(O)(C3)C1)C2 [Compound 1b] | – | – | – | – | – | IC50 (hP2X7 [1]): 0.275 ± 0.05 µM
13 | NC12CC3CC(C1)CC(C(=O)NCc1ccccc1Cl)(C3)C2 [Compound 2, 3-Amino-N-(2-chlorobenzyl)adamantane-1-carboxamide] | 186 to 189 | – | – | 18 | 30 | –
14 | CC12CC3CC(C)(C1)CC(C(=O)NNc1c(Cl)cncc1Cl)(C3)C2 [Compound 3] | – | – | – | – | – | IC50 (hP2X7 [2]): 0.013 ± 0.001 µM
15 | NC12CC3CC(CC(C3)C1)C2 [amantadine] | – | – | – | – | – | IC50 (NMDAR; amantadine, read-out: NMDAR antagonist IC50): 92 ± 29 µM
16 | CC12CC3CC(C)(C1)CC(N)(C3)C2 [memantine] | – | – | – | – | – | fold more potent as an NMDA inhibitor than amantadine (NMDAR): 60 fold
